The values that follow come from US20050222406A1, “Condensed palatinose in hydrogenated form” (priority 2002, published 2005).

The test system of data set [1] is glucoamylase/maltase (GM) enzyme complex. The data set is described as follows: Cleavability by small-intestine α-glucosidases, GM complex. As to conditions: 2 hours, 37° C. The class given is in vitro ADME, porcine. As for the experimental part: Mixing was followed by incubation at 37° C.
Data set [2] has as its system saccharase/isomaltase (SI) enzyme complex. The data set is described as follows: Cleavability by small-intestine α-glucosidases, SI complex. As to conditions: 2 hours, 37° C.
Protocol: The saccharase/isomaltase (SI) and glucoamylase/-maltase (GM) enzyme complexes were isolated from porcine small intestine by the method of H. Heymann (Dissertation, Hannover, 1991).
• triethanolamine (TRA) buffer, 0.1 M, pH 7.0 • saccharide, 1% strength solution in TRA buffer • maltose or sucrose, as control substances, 1% strength in TRA buffer • mucosa enzyme, dissolved in TRA buffer Reaction Mixture:
1.2 ml of the carbohydrate solution, at a controlled temperature of 37° C., were admixed with 0.7 U of the saccharase/isomaltose or glucoamylase/maltase enzyme complex, respectively, at t=0. Mixing was followed by incubation at 37° C. The reaction was stopped after 2 hours by heating at 95° C. for 15 minutes. The monosaccharides formed and also the test substances used were assayed by HPAEC.
Data set [3] can be described thus: Stability in the stomach: rate of hydrolysis at pH 2.0. As to conditions: pH 2.0 (0.01 M HCl), 37° C., 1% solution. The data set is classed as physicochemical.
Protocol: The stability of a substance on passage through the stomach can be ascertained by determining the rate of hydrolysis at a pH of 2.0, using sucrose and 1-kestose as controls.
Samples were taken from the reaction mixture after 60, 120 and 180 minutes. They were analyzed by means of HPAEC techniques.
Report as hydrolysis rates in %

Regarding `OC[C@H]1O[C@H](O[C@H]2[C@H](O)[C@@H](O)C(O)O[C@@H]2CO)[C@H](O)[C@@H](O)[C@@H]1O` (mixture of isomers) [Maltose, maltose], in data set [1], the “hydrolysis by the GM enzyme complex” value is given as “virtually complete hydrolysis”. Also, the “hydrolysis by the SI enzyme complex” value in data set [2] is listed as “virtually complete hydrolysis”.

As for `OC[C@H]1O[C@@](CO)(OC[C@@]2(O[C@H]3O[C@H](CO)[C@@H](O)[C@H](O)[C@H]3O)O[C@H](CO)[C@@H](O)[C@@H]2O)[C@@H](O)[C@@H]1O` [1-Kestose, 1-kestose], the hydrolysis rate in data set [3] (incubation time 0 min.) was 0%; in data set [3] (incubation time 60 min.), 11%; in data set [3] (incubation time 120 min.) it was 25%; in data set [3] (incubation time 180 min.), 36%.

On to `OC[C@H]1O[C@@](CO)(O[C@H]2O[C@H](CO)[C@@H](O)[C@H](O)[C@H]2O)[C@@H](O)[C@@H]1O` [Sucrose, sucrose], for which the hydrolysis rate in data set [3] (incubation time 0 min.) stood at 0%; in data set [3] (incubation time 60 min.), 2%; in data set [3] (incubation time 120 min.), 5%; in data set [3] (incubation time 180 min.), 8%. Further, the “hydrolysis by the SI enzyme complex” value in data set [2] is “virtually complete hydrolysis”.
